Test results taken from US20210171948A1, “COMPOSITIONS AND METHODS FOR TARGETING GLYPICAN-2 IN THE TREATMENT OF CANCER” (Shepherd Therapeutics, Inc., priority 2019, published 2021).
d = 2'-deoxy (DNA); r = 2'-OH (RNA)

Assays:
GPC2 mRNA [1] = assay: GPC2 mRNA knockdown in neuroblastoma cell lines (Example 4); type: cell-based, human; conditions: for Degree of GPC2 knockdown among sequences 3, 5, 12-15: CHP212, SKNAS and SHSY5Y neuroblastoma cell lines, 96 hour incubation (FIG. 3A)
Protocol: GPC2 mRNA knockdown was assessed in multiple neuroblastoma cell lines. Cells were transfected with either a scrambled control siRNA, with GPC2 siRNA sequences 3 or 5 from Table 7, or with siRNA sequences generated by Dharmacon (sequences 12-15 from Table 7) using the RNAiMAX Lipofectamine kit (Invitrogen, Carlsbad, Calif.) as previously described. Following a 96 hour incubation period, total RNA samples were collected to compare knockdown efficiency and viability was measured in parallel plated cells.
The extent of GPC2 mRNA reduction was assessed with additional GPC2 siRNA sequences in the CHP212 neuroblastoma cell line. Cells were transfected with either a scrambled control siRNA or with GPC2 siRNA sequences 3 or 5, or with siRNA sequences 6-11 (Sigma) using the RNAiMAX Lipofectamine kit (Invitrogen, Carlsbad, Calif.) as previously described. Following a 96 hour incubation period, total RNA samples were collected and viability was measured in parallel plated cells.
The extent of GPC2 mRNA reduction (knockdown) and corresponding protein level expression changes were assessed in three neuroblastoma cell lines following siRNA knockdown of GPC2. The CHP212 neuroblastoma cell line (FIG. 5A and FIG. 5D), the SH-SY5Y neuroblastoma cell line (FIG. 5B and FIG. 5E) and the CHLA90 neuroblastoma cell line (FIG. 5C and FIG. 5F) were transfected with GPC2 siRNA sequences 5 and 7 from Table 7 and a scrambled control siRNA using the RNAiMAX Lipofectamine kit (Invitrogen, Carlsbad, Calif.) as previously described. Following a 24, 48, or 72 hour incubation period, cells were washed and total RNA was isolated for measuring GPC2 mRNA expression. For protein analysis, cells were fixed, immunostained using an antibody against GPC2 protein, protein expression was measured via flow cytometry. As shown, GPC2 mRNA knockdown was observed beginning at the 24 hr time point and lasted for at least 72 hours. GPC2 protein expression started to decrease at the 48 hr time point.

CHP212 cells [2] = assay: Cyclophosphamide IC50 in siRNA-transfected cells, Cell Titer Glo 2.0 viability (Example 7); type: cell-based; conditions: for Data Summary: effect of knockdown on sensitivity to cyclophosphamide: CHP212; for IC50: CHP212 cells transfected with the labelled siRNA, cyclophosphamide added 24 hr post transfection, 72 hour incubation
Protocol: (§1) GPC2 mRNA expression was reduced with the indicated siRNAs and changes in cell viability were assessed in multiple neuroblastoma cell lines. Cells were transfected with either a control siRNA or with GPC2 siRNA sequences 3, 5 or 7 from Table 7 using the RNAiMAX Lipofectamine kit (Invitrogen, Carlsbad, Calif.) as previously described in 96 wells for viability assays. Cyclophosphamide was added at increasing concentrations (0-20 uM) to transfected cells at 24 hr post transfection. Following a 72 hour incubation period, viability measurements were made using Cell Titer Glo 2.0.

CHLA-90 cells [3] = assay: as above; type: cell-based; conditions: for IC50: CHLA-90 cells transfected with the labelled siRNA, cyclophosphamide added 24 hr post transfection, 72 hour incubation
Protocol: as §1

SH-SY5Y cells [4] = assay: as above; type: cell-based; conditions: for Data Summary: effect of knockdown on sensitivity to cyclophosphamide: SH-SY5Y; for IC50: SH-SY5Y cells transfected with the labelled siRNA, cyclophosphamide added 24 hr post transfection, 72 hour incubation
Protocol: as §1

SK-N-BE2 cells [5] = assay: as above; type: cell-based; conditions: for Data Summary: effect of knockdown on sensitivity to cyclophosphamide: SK-N-BE2; for IC50: SK-N-BE2 cells transfected with the labelled siRNA, cyclophosphamide added 24 hr post transfection, 72 hour incubation
Protocol: as §1

CHP212 cells [6] = assay: Etoposide IC50 in siRNA-transfected cells, Cell Titer Glo 2.0 viability (Example 9); type: cell-based; conditions: for IC50: CHP212 cells transfected with the labelled siRNA, etoposide added 24 hours post transfection, 72 hour incubation
Protocol: (§2) GPC2 mRNA expression was reduced and changes in cell viability were assessed in multiple neuroblastoma cell lines. Cells were transfected with either a control siRNA or with GPC2 siRNA sequences 3, 5 or 7 from Table 7 using the RNAiMAX Lipofectamine kit (Invitrogen, Carlsbad, Calif.) as previously described in 96 wells for viability assays. Etoposide was added at increasing concentrations (0-15 uM) to transfected cells at 24 hours post transfection. Following a 72 hour incubation period, viability measurement were made using Cell Titer Glo 2.0.

CHLA-90 cells [7] = assay: as above; type: cell-based; conditions: for IC50: CHLA-90 cells transfected with the labelled siRNA, etoposide added 24 hours post transfection, 72 hour incubation
Protocol: as §2

SH-SY5Y cells [8] = assay: as above; type: cell-based; conditions: for Data Summary: effect of knockdown on sensitivity to etoposide: SH-SY5Y; for IC50: SH-SY5Y cells transfected with the labelled siRNA, etoposide added 24 hours post transfection, 72 hour incubation
Protocol: as §2

SK-N-BE2 cells [9] = assay: as above; type: cell-based; conditions: for Data Summary: effect of knockdown on sensitivity to etoposide: SK-N-BE2; for IC50: SK-N-BE2 cells transfected with the labelled siRNA, etoposide added 24 hours post transfection, 72 hour incubation
Protocol: as §2

GPC2 mRNA [10] = assay: GPC2 mRNA knockdown in neuroblastoma cell lines, representative data from a separate experiment (Tables 10-14); type: cell-based, human; design: concentration or dose not given beside the values
CHP212 cells [11] = assay: Carboplatin IC50 in siRNA-transfected cells, Cell Titer Glo 2.0 viability (Example 6); type: cell-based; conditions: for Data Summary: effect of knockdown on sensitivity to carboplatin: CHP212; for IC50: CHP212 cells transfected with the labelled siRNA, carboplatin added 24 hours post transfection, 72 hour incubation
Protocol: (§3) GPC2 mRNA expression was reduced using the indicated siRNAs and changes in cell viability were assessed in multiple neuroblastoma cell lines. Cells were transfected with either a control siRNA or with GPC2 siRNA sequences 3, 5 or 7 from Table 7 using the RNAiMAX Lipofectamine kit (Invitrogen, Carlsbad, Calif.) as previously described in 96 wells for viability assays. Carboplatin was added at increasing concentrations (0 to 150 uM) to transfected cells at 24 hours post transfection. Following a 72 hour incubation period, viability measurements were made using Cell Titer Glo 2.0.

CHLA-90 cells [12] = assay: as above; type: cell-based; conditions: for Data Summary: effect of knockdown on sensitivity to carboplatin: CHLA-90; for IC50: CHLA-90 cells transfected with the labelled siRNA, carboplatin added 24 hours post transfection, 72 hour incubation
Protocol: as §3

SH-SY5Y cells [13] = assay: as above; type: cell-based; conditions: for IC50: SH-SY5Y cells transfected with the labelled siRNA, carboplatin added 24 hours post transfection, 72 hour incubation
Protocol: as §3

SK-N-BE2 cells [14] = assay: as above; type: cell-based; conditions: for Data Summary: effect of knockdown on sensitivity to carboplatin: SK-N-BE2; for IC50: SK-N-BE2 cells transfected with the labelled siRNA, carboplatin added 24 hours post transfection, 72 hour incubation
Protocol: as §3

[15] = CHLA-90, compared to scrambled siRNA control
[16] = CHLA-136, compared to scrambled siRNA control
[17] = CHLA-172, compared to scrambled siRNA control
[18] = CHP212, compared to scrambled siRNA control
[19] = KELLY, compared to scrambled siRNA control
[20] = SH-SY5Y, compared to scrambled siRNA control
[21] = SK-N-BE2, compared to scrambled siRNA control
[22] = SKNAS, compared to scrambled siRNA control

Question: Which results are given for “GPC2 siRNA 3: siRNA duplex: sense CCUGCUUGGACCUCGAUAA[dT][dT] (SEQ ID NO: 207), anti-sense UUAUCGAGGUCCAAGCAGG[dT][dT] (SEQ ID NO: 208) (sense CCUGCUUGGACCUCGAUAANN; antisense UUAUCGAGGUCCAAGCAGGNN; 3' dTdT overhangs, chemistry not fully specified; listed as Homo sapiens)”?
Answer: Degree of GPC2 knockdown among sequences 3, 5, 12-15 (GPC2 mRNA [1]): greater; Data Summary: effect of knockdown on sensitivity to cyclophosphamide (CHP212 cells [2]): increases sensitivity to; IC50 (CHP212 cells [2]): 870 nM; IC50 (CHLA-90 cells [3]): 30000 nM; Data Summary: effect of knockdown on sensitivity to cyclophosphamide (SH-SY5Y cells [4]): increases sensitivity to; IC50 (SH-SY5Y cells [4]): 1500 nM; Data Summary: effect of knockdown on sensitivity to cyclophosphamide (SK-N-BE2 cells [5]): increases sensitivity to; IC50 (SK-N-BE2 cells [5]): 2410 nM; IC50 (CHP212 cells [6]): 30 nM; IC50 (CHLA-90 cells [7]): 350 nM; Data Summary: effect of knockdown on sensitivity to etoposide (SH-SY5Y cells [8]): 7 increases sensitivity to etoposide; IC50 (SH-SY5Y cells [8]): 80 nM; Data Summary: effect of knockdown on sensitivity to etoposide (SK-N-BE2 cells [9]): 7 increases sensitivity to etoposide; IC50 (SK-N-BE2 cells [9]): 1000 nM; % KD; percent GPC2 mRNA reduction (knockdown) (GPC2 mRNA [10]; [15]): 50%; % KD; percent GPC2 mRNA reduction (knockdown) (GPC2 mRNA [10]; [16]): 25%; % KD; percent GPC2 mRNA reduction (knockdown) (GPC2 mRNA [10]; [17]): 5%; % KD; percent GPC2 mRNA reduction (knockdown) (GPC2 mRNA [10]; [18]): 60%; % KD; percent GPC2 mRNA reduction (knockdown) (GPC2 mRNA [10]; [19]): 65%; % KD; percent GPC2 mRNA reduction (knockdown) (GPC2 mRNA [10]; [20]): 55%; % KD; percent GPC2 mRNA reduction (knockdown) (GPC2 mRNA [10]; [21]): 55%; % KD; percent GPC2 mRNA reduction (knockdown) (GPC2 mRNA [10]; [22]): 40%; Data Summary: effect of knockdown on sensitivity to carboplatin (CHP212 cells [11]): increases sensitivity to; IC50 (CHP212 cells [11]): 19900 nM; Data Summary: effect of knockdown on sensitivity to carboplatin (CHLA-90 cells [12]): increases sensitivity to; IC50 (CHLA-90 cells [12]): 100000 nM; IC50 (SH-SY5Y cells [13]): 2300 nM; Data Summary: effect of knockdown on sensitivity to carboplatin (SK-N-BE2 cells [14]): increases sensitivity to; IC50 (SK-N-BE2 cells [14]): 27900 nM

Question: Which results are given for “GPC2 siRNA 5: siRNA duplex: sense CUCAGUAGCCCAGCACUCU[dT][dT] (SEQ ID NO: 211), anti-sense AGAGUGCUGGGCUACUGAG[dT][dT] (SEQ ID NO: 212) (sense CUCAGUAGCCCAGCACUCUTT; antisense AGAGUGCUGGGCUACUGAGTT; sugars from the 5' end r19 d2, backbone not given here; listed as Homo sapiens)”?
Answer: Time for which reduced GPC2 mRNA expression was sustained (GPC2 mRNA [1]; CHLA90 neuroblastoma cells (FIG. 5C)): 72 h; Time point at which GPC2 mRNA knockdown was first observed (GPC2 mRNA [1]; CHP212, SH-SY5Y and CHLA90 neuroblastoma cell lines): 24 h; Degree of GPC2 knockdown among sequences 3, 5, 12-15 (GPC2 mRNA [1]): greater; Degree of GPC2 knockdown among sequences 3, 5, 6-11 (GPC2 mRNA [1]; CHP212 neuroblastoma cell line, 96 hour incubation (FIG. 4A)): greater; Time for which reduced GPC2 mRNA expression was sustained (GPC2 mRNA [1]; CHP212 neuroblastoma cells (FIG. 5A)): 72 h; Time for which reduced GPC2 mRNA expression was sustained (GPC2 mRNA [1]; SH-SY5Y neuroblastoma cells (FIG. 5B)): 72 h; Data Summary: effect of knockdown on sensitivity to cyclophosphamide (CHP212 cells [2]): increases sensitivity to; IC50 (CHP212 cells [2]): 450 nM; Data Summary: effect of knockdown on sensitivity to cyclophosphamide (CHLA-90 cells [3]; CHLA-90): increases sensitivity to; IC50 (CHLA-90 cells [3]): 20000 nM; Data Summary: effect of knockdown on sensitivity to cyclophosphamide (SH-SY5Y cells [4]): increases sensitivity to; IC50 (SH-SY5Y cells [4]): 300 nM; Data Summary: effect of knockdown on sensitivity to cyclophosphamide (SK-N-BE2 cells [5]): increases sensitivity to; IC50 (SK-N-BE2 cells [5]): 1800 nM; Data Summary: effect of knockdown on sensitivity to etoposide (CHP212 cells [6]; CHP212): increases sensitivity to etoposide; IC50 (CHP212 cells [6]): 20 nM; Data Summary: effect of knockdown on sensitivity to etoposide (CHLA-90 cells [7]; CHLA-90): increases sensitivity to etoposide; IC50 (CHLA-90 cells [7]): 250 nM; Data Summary: effect of knockdown on sensitivity to etoposide (SH-SY5Y cells [8]): 7 increases sensitivity to etoposide; IC50 (SH-SY5Y cells [8]): 50 nM; Data Summary: effect of knockdown on sensitivity to etoposide (SK-N-BE2 cells [9]): 7 increases sensitivity to etoposide; IC50 (SK-N-BE2 cells [9]): 20 nM; % KD; percent GPC2 mRNA reduction (knockdown) (GPC2 mRNA [10]; [15]): 55%; % KD; percent GPC2 mRNA reduction (knockdown) (GPC2 mRNA [10]; [16]): 35%; % KD; percent GPC2 mRNA reduction (knockdown) (GPC2 mRNA [10]; [17]): 8%; % KD; percent GPC2 mRNA reduction (knockdown) (GPC2 mRNA [10]; [18]): 70%; % KD; percent GPC2 mRNA reduction (knockdown) (GPC2 mRNA [10]; [19]): 75%; % KD; percent GPC2 mRNA reduction (knockdown) (GPC2 mRNA [10]; [20]): 75%; % KD; percent GPC2 mRNA reduction (knockdown) (GPC2 mRNA [10]; [21]): 68%; % KD; percent GPC2 mRNA reduction (knockdown) (GPC2 mRNA [10]; [22]): 70%; Data Summary: effect of knockdown on sensitivity to carboplatin (CHP212 cells [11]): increases sensitivity to; IC50 (CHP212 cells [11]): 10400 nM; Data Summary: effect of knockdown on sensitivity to carboplatin (CHLA-90 cells [12]): increases sensitivity to; IC50 (CHLA-90 cells [12]): 100000 nM; Data Summary: effect of knockdown on sensitivity to carboplatin (SH-SY5Y cells [13]; SH-SY5Y): increases sensitivity to; IC50 (SH-SY5Y cells [13]): 1550 nM; Data Summary: effect of knockdown on sensitivity to carboplatin (SK-N-BE2 cells [14]): increases sensitivity to; IC50 (SK-N-BE2 cells [14]): 11000 nM
